Experimental data reported in patent US9169241B2, “Quinolinyloxyphenylsulfonamides” (Max-Planck-Gesellschaft Zur Forderung der Wissenschaften …, priority 2009, dated 2015).
Like-named read-outs stand apart in the source and are kept apart here.

Tests used:
[1] = system: Hs578T; experiment: Cell vitality assay (ATP assay, CellTiter-Glo); format: cell-based; details: Homo sapiens, Hs-578T; HS578T cell line, 72 h; Table Ib; read-out: IC50 ATP-Assay HS578T after 72 h
How it was run: (§1)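 IC50s reflect 50% loss of ATP-dependent luminescence versus DMSO control after a 72 h treatment of 1000 cells per well across 0.195–12.5 μM compound.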

[2] = system: SF126; experiment: Cell vitality assay (ATP assay, CellTiter-Glo); format: cell-based; details: Homo sapiens, SF-126; SF126, 72 h; Table IIa; read-out: IC50 ATP-Assay after 72 h SF126
How it was run: as §1

[3] = system: U118; experiment: Cell vitality assay (ATP assay, CellTiter-Glo); format: cell-based; details: U118, 72 h; Table IIa; read-out: IC50 ATP-Assay after 72 h U118
How it was run: as §1

[4] = system: Hs578T; experiment: Wound healing migration assay; format: cell-based; details: Homo sapiens, Hs-578T; HS578T cell line; Table Ib
How it was run: (§2)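 Compound exposure at 12.5, 6.25 and 3.125 μM, with DMSO control, on scratch-wounded monolayers (150000 cells/24 well, overnight). Wound closure imaged by microscopy, fixed with crystal violet after 48 h or 72 h depending on cell line; IC50 is the concentration giving 50% wound size between t0 and t48/t72.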

[5] = system: indicated cell line; experiment: Wound healing migration assay (Table IV); format: cell-based; details: compounds at 12.5, 6.25, 3.125 μM, 48 h-72 h
How it was run: as §2

[6] = system: A172; experiment: Matrigel outgrowth assay/branching assay; format: cell-based; details: Homo sapiens, A 172, Table Vb, read-out: Total branching inhibition in Matrigel A172
How it was run: (§3)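 Invasive outgrowth into a 3 mg/ml Matrigel gel is judged from images taken after 48, 72 and 96 h of exposure to 3.125, 1.56 or 0.78 μM compound, with DMSO as control. Positive means total inhibition of branching.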

[7] = system: Hs578T; experiment: Matrigel outgrowth assay/branching assay; format: cell-based; details: Homo sapiens, Hs-578T; HS578T cell line; Table Ib; read-out: Total branching inhibition in Matrigel HS578T
How it was run: as §3

[8] = system: SF126; experiment: Matrigel outgrowth assay/branching assay; format: cell-based; details: Homo sapiens, SF-126, Table Vb, read-out: Total branching inhibition in Matrigel SF126
How it was run: as §3

[9] = system: U118; experiment: Matrigel outgrowth assay/branching assay; format: cell-based; details: Table Vb, read-out: Total branching inhibition in Matrigel U118
How it was run: as §3

[10] = system: cells; experiment: Boyden chamber migration assay (Table VI); format: cell-based; details: Homo sapiens, Hs-578T, 16 h, Hs578T cells; 16 h migration
How it was run: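 Migration read-out is a count of fixed cells on the underside of an […] insert membrane after 16 h. Chemoattractant was medium with 10% FCS in the lower chamber; 20000 cells started in serum-free medium with 0.1% BSA above, and those left on top were removed by swab.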

[11] = Homo sapiens, A 172, A172 cells, read-out: IC50 Wound healing Assay A172
[12] = Homo sapiens, SF-126, SF126 cells, read-out: IC50 Wound healing Assay SF126
[13] = U118 cells, read-out: IC50 Wound healing Assay U118
[14] = Homo sapiens, C8161 cells, read-out: IC50 Wound healing Assay C8161
[15] = SF763 cells, read-out: IC50 Wound healing Assay SF763

Compound	IC50 [1]	IC50 [2]	IC50 [3]	IC50 [4]	IC50 [5, 11]	IC50 [5, 12]	IC50 [5, 13]	IC100 [6]	IC50 [7]	IC100 [8]	IC100 [9]	melting point	IC50 [5, 14]	IC50 [5, 15]	IC50 [10]
COc1cc2c(Oc3ccc(NS(=O)(=O)c4c(Cl)cccc4Cl)cc3F)ccnc2cc1OCCCN1CCCCC1 [Example 6, 2,6-Dichloro-N-{3-fluoro-4-[6-methoxy-7-(3-piperidin-1-yl-propoxy)-quinolin-4-yloxy]-phenyl}-benzenesulfonamide]	≤ 12.5 µM	≤ 12.5 µM	≤ 12.5 µM	≤ 12.5 µM	≤ 12.5 µM	≤ 12.5 µM	≤ 12.5 µM	> 12.5 µM	≤ 10 µM	≤ 12.5 µM	≤ 12.5 µM	206 to 208 °C			
COc1cc2c(Oc3ccc(NS(=O)(=O)c4c(F)cccc4F)cc3F)ccnc2cc1OCCCN1CCCCC1 [Example 11, 2,6-Difluoro-N-{3-fluoro-4-[6-methoxy-7-(3-piperidin-1-yl-propoxy)-quinolin-4-yloxy]-phenyl}-benzenesulfonamide]	≤ 12.5 µM	12.5 to 50 µM	12.5 to 50 µM	≤ 12.5 µM	12.5 to 50 µM	≤ 12.5 µM	12.5 to 50 µM	> 12.5 µM	10 to 25 µM	> 12.5 µM	> 12.5 µM	242 to 244 °C			
COc1cc2c(Oc3ccc(NS(=O)(=O)c4cc(Cl)cc(Cl)c4OC)cc3F)ccnc2cc1OCCCN1CCCCC1 [Example 34, 3,5-Dichloro-N-{3-fluoro-4-[6-methoxy-7-(3-piperidin-1-yl-propoxy)-quinolin-4-yloxy]-phenyl}-2-methoxy-benzenesulfonamide]	≤ 12.5 µM			≤ 12.5 µM					≤ 10 µM			173 to 175 °C	≤ 12.5 µM	12.5 to 50 µM	≤ 5 µM
COc1cc2c(Oc3ccc(NS(=O)(=O)c4cc(Cl)cc(Cl)c4OC)cc3F)ccnc2cc1OCCCN1CCN(C)CC1 [Example 35, 3,5-Dichloro-N-(3-fluoro-4-{6-methoxy-7-[3-(4-methyl-piperazin-1-yl)-propoxy]-quinolin-4-yloxy}-phenyl)-2-methoxy-benzenesulfonamide]	≤ 12.5 µM								≤ 10 µM			183 to 185 °C	≤ 12.5 µM	≤ 12.5 µM	≤ 5 µM
COc1cc2c(Oc3ccc(NS(=O)(=O)c4ccccc4[N+](=O)[O-])cc3F)ccnc2cc1OCCCN1CCCC(C)C1 (centres unmarked) [Example 40, N-(3-Fluoro-4-{6-methoxy-7-[3-(3-methyl-piperidin-1-yl)-propoxy]-quinolin-4-yloxy}-phenyl)-2-nitro-benzenesulfonamide]	≤ 12.5 µM	≤ 12.5 µM	12.5 to 50 µM	≤ 12.5 µM	≤ 12.5 µM	≤ 12.5 µM	≤ 12.5 µM	> 12.5 µM	≤ 10 µM	≤ 12.5 µM	> 12.5 µM	136 to 138 °C			
COc1cc2c(Oc3ccc(NS(=O)(=O)c4ccccc4OC(F)(F)F)cc3F)ccnc2cc1OCCCN1CCCC(C)C1 (centres unmarked) [Example 45, N-(3-Fluoro-4-{6-methoxy-7-[3-(3-methyl-piperidin-1-yl)-propoxy]-quinolin-4-yloxy}-phenyl)-2-trifluoromethoxy-benzenesulfonamide]	≤ 12.5 µM	≤ 12.5 µM	≤ 12.5 µM	≤ 12.5 µM	≤ 12.5 µM	≤ 12.5 µM	≤ 12.5 µM	> 12.5 µM	≤ 10 µM	≤ 12.5 µM	≤ 12.5 µM	128 to 130 °C			
COc1cc2c(Oc3ccc(NS(=O)(=O)c4ccc(F)c(F)c4F)cc3F)ccnc2cc1OCCCN1CCCC(C)C1 (centres unmarked) [Example 49, 2,3,4-Trifluoro-N-(3-fluoro-4-{6-methoxy-7-[3-(3-methyl-piperidin-1-yl)-propoxy]-quinolin-4-yloxy}-phenyl)-benzenesulfonamide]	≤ 12.5 µM	≤ 12.5 µM	≤ 12.5 µM	≤ 12.5 µM	≤ 12.5 µM	≤ 12.5 µM	≤ 12.5 µM	> 12.5 µM	10 to 25 µM	> 12.5 µM	> 12.5 µM	134 to 136 °C			
COc1cc2c(Oc3ccc(NS(=O)(=O)c4c(Cl)cccc4Cl)cc3F)ccnc2cc1OCCCN1CCCC(C)C1 (centres unmarked) [Example 51, 2,6-Dichloro-N-(3-fluoro-4-{6-methoxy-7-[3-(3-methyl-piperidin-1-yl)-propoxy]-quinolin-4-yloxy}-phenyl)-benzenesulfonamide]	≤ 12.5 µM	≤ 12.5 µM	≤ 12.5 µM	≤ 12.5 µM	≤ 12.5 µM	≤ 12.5 µM	≤ 12.5 µM	> 12.5 µM	≤ 10 µM	≤ 12.5 µM	≤ 12.5 µM	119 to 121 °C			
COc1cc2c(Oc3ccc(NS(=O)(=O)c4ccc(F)c(Cl)c4)cc3F)ccnc2cc1OCCCN1CCCC(C)C1 (centres unmarked) [Example 57, 3-Chloro-4-fluoro-N-(3-fluoro-4-{6-methoxy-7-[3-(3-methyl-piperidin-1-yl)-propoxy]-quinolin-4-yloxy}-phenyl)-benzenesulfonamide]	≤ 12.5 µM			≤ 12.5 µM					≤ 10 µM			124 to 126 °C	≤ 12.5 µM	12.5 to 50 µM	5 to 50 µM
COc1cc2c(Oc3ccc(NS(=O)(=O)c4cccc5ccccc45)cc3F)ccnc2cc1OCCCN1CCCC(C)C1 (centres unmarked) [Example 58, Naphthalene-1-sulfonic acid (3-fluoro-4-{6-methoxy-7-[3-(3-methyl-piperidin-1-yl)-propoxy]-quinolin-4-yloxy}-phenyl)-amide]	≤ 12.5 µM			≤ 12.5 µM					≤ 10 µM			131 to 133 °C	12.5 to 50 µM	≤ 12.5 µM	≤ 5 µM
COc1cc2c(Oc3ccc(NS(=O)(=O)c4ccccc4F)cc3F)ccnc2cc1OCCN1CCOCC1 [Example 81, 2-Fluoro-N-{3-fluoro-4-[6-methoxy-7-(2-morpholin-4-yl-ethoxy)-quinolin-4-yloxy]-phenyl}-benzenesulfonamide]	≤ 12.5 µM			12.5 to 50 µM					≤ 10 µM			168 to 169 °C	≤ 12.5 µM	12.5 to 50 µM	≤ 5 µM
COc1cc2c(Oc3ccc(NS(=O)(=O)c4c(F)cccc4F)cc3F)ccnc2cc1OCCN1CCOCC1 [Example 82, 2,6-Difluoro-N-{3-fluoro-4-[6-methoxy-7-(2-morpholin-4-yl-ethoxy)-quinolin-4-yloxy]-phenyl}-benzenesulfonamide]	≤ 12.5 µM			12.5 to 50 µM					≤ 10 µM			182 to 183 °C	≤ 12.5 µM	≤ 12.5 µM	5 to 50 µM
COc1cc2c(Oc3cccc(NS(=O)(=O)c4ccccc4C(F)(F)F)c3)ccnc2cc1OCCCN1CCN(C)CC1 [Example 102, N-(3-{6-Methoxy-7-[3-(4-methyl-piperazin-1-yl)-propoxy]-quinolin-4-yloxy}-phenyl)-2-trifluoromethyl-benzenesulfonamide]	≤ 12.5 µM			≤ 12.5 µM					10 to 25 µM			155 to 156 °C	12.5 to 50 µM	≤ 12.5 µM	≤ 5 µM
COc1cc2c(Oc3ccc(NS(=O)(=O)c4c(F)cccc4F)cc3F)ccnc2cc1OCCCN1CCN(C)CC1 [Example 110, 2,6-Difluoro-N-(3-fluoro-4-{6-methoxy-7-[3-(4-methyl-piperazin-1-yl)-propoxy]-quinolin-4-yloxy}-phenyl)-benzenesulfonamide]	≤ 12.5 µM	≤ 12.5 µM	≤ 12.5 µM	≤ 12.5 µM	≤ 12.5 µM	≤ 12.5 µM	≤ 12.5 µM	> 12.5 µM	≤ 10 µM	≤ 12.5 µM	≤ 12.5 µM				
